In brackets after ≈: the same amount, converted by molar mass.
Legend:
Assay type in all cases: functional
Aspergillus niger [1] = experiment: Antimicrobial activity against Aspergillus niger at 10 ug/disk by disk diffusion method; conditions: read-out: DIZ
Priestia megaterium [2] = experiment: Antimicrobial activity against Bacillus megaterium at 10 ug/disk by disk diffusion method; conditions: read-out: DIZ
Salmonella typhi [3] = experiment: Antimicrobial activity against Salmonella enterica subsp. enterica serovar Typhi at 10 ug/disk by disk diffusion method; conditions: read-out: DIZ
Serratia marcescens [4] = experiment: Antimicrobial activity against Serratia marcescens by disk diffusion method
Pseudomonas aeruginosa [5] = experiment: Antimicrobial activity against Pseudomonas aeruginosa by disk diffusion method
Escherichia coli [6] = experiment: Antimicrobial activity against Escherichia coli at 10 ug/disk by disk diffusion method; conditions: read-out: DIZ
Serratia marcescens [7] = experiment: Antimicrobial activity against Serratia marcescens at 10 ug/disk by disk diffusion method; conditions: read-out: DIZ
Klebsiella pneumoniae [8] = experiment: Antimicrobial activity against Klebsiella pneumoniae at 10 ug/disk by disk diffusion method; conditions: read-out: DIZ
Micrococcus luteus [9] = experiment: Antimicrobial activity against Micrococcus luteus at 10 ug/disc by disk diffusion method; conditions: read-out: DIZ
Klebsiella pneumoniae [10] = experiment: Antimicrobial activity against Klebsiella pneumoniae by disk diffusion method
Proteus vulgaris [11] = experiment: Antimicrobial activity against Proteus vulgaris at 10 ug/disk by disk diffusion method; conditions: read-out: DIZ
Escherichia coli [12] = experiment: Antimicrobial activity against Escherichia coli by disk diffusion method
Proteus vulgaris [13] = experiment: Antimicrobial activity against Proteus vulgaris by disk diffusion method
Pseudomonas aeruginosa [14] = experiment: Antimicrobial activity against Pseudomonas aeruginosa at 10 ug/disk by disk diffusion method; conditions: read-out: DIZ
Citrobacter freundii [15] = experiment: Antimicrobial activity against Citrobacter freundii by disk diffusion method
Fusarium verticillioides [16] = experiment: Antimicrobial activity against Fusarium verticillioides at 20 ug/disk by disk diffusion method; conditions: read-out: DIZ
Candida albicans [17] = experiment: Antimicrobial activity against Candida albicans at 20 ug/disk by disk diffusion method; conditions: read-out: DIZ
Micrococcus luteus [18] = experiment: Antimicrobial activity against Micrococcus luteus by disk diffusion method
Citrobacter freundii [19] = experiment: Antimicrobial activity against Citrobacter freundii at 10 ug/disk by disk diffusion method; conditions: read-out: DIZ
Aspergillus oryzae [20] = experiment: Antimicrobial activity against Aspergillus oryzae at 10 ug/disk by disk diffusion method; conditions: read-out: DIZ
Salmonella typhi [21] = experiment: Antimicrobial activity against Salmonella enterica subsp. enterica serovar Typhi by disk diffusion method
Priestia megaterium [22] = experiment: Antimicrobial activity against Bacillus megaterium by disk diffusion method
Candida albicans [23] = experiment: Antimicrobial activity against Candida albicans at 10 ug/disk by disk diffusion method; conditions: read-out: DIZ
Aspergillus oryzae [24] = experiment: Antimicrobial activity against Aspergillus oryzae at 30 ug/disk by disk diffusion method; conditions: read-out: DIZ
Citrobacter freundii [25] = experiment: Antimicrobial activity against Citrobacter freundii at 10 to 60 ug/disk by disk diffusion method
Escherichia coli [26] = experiment: Antimicrobial activity against Escherichia coli at 10 to 60 ug/disk by disk diffusion method
Aspergillus niger [27] = experiment: Antimicrobial activity against Aspergillus niger at 10 to 60 ug/disk by disk diffusion method
Fusarium verticillioides [28] = experiment: Antimicrobial activity against Fusarium verticillioides at 10 to 60 ug/disk by disk diffusion method
Serratia marcescens [29] = experiment: Antimicrobial activity against Serratia marcescens at 10 to 60 ug/disk by disk diffusion method
Pseudomonas aeruginosa [30] = experiment: Antimicrobial activity against Pseudomonas aeruginosa at 10 to 60 ug/disk by disk diffusion method
Micrococcus luteus [31] = experiment: Antimicrobial activity against Micrococcus luteus at 10 to 60 ug/disc by disk diffusion method
Proteus vulgaris [32] = experiment: Antimicrobial activity against Proteus vulgaris at 10 to 60 ug/disk by disk diffusion method
Priestia megaterium [33] = experiment: Antimicrobial activity against Bacillus megaterium at 10 to 60 ug/disk by disk diffusion method
Aspergillus oryzae [34] = experiment: Antimicrobial activity against Aspergillus oryzae at 10 to 60 ug/disk by disk diffusion method
Candida albicans [35] = experiment: Antimicrobial activity against Candida albicans at 10 to 60 ug/disk by disk diffusion method
Salmonella typhi [36] = experiment: Antimicrobial activity against Salmonella enterica subsp. enterica serovar Typhi at 10 to 60 ug/disk by disk diffusion method
Klebsiella pneumoniae [37] = experiment: Antimicrobial activity against Klebsiella pneumoniae at 10 to 60 ug/disk by disk diffusion method

SMILES	zone of inhibition at 10 µg/disc (Aspergillus niger [1]) [mm]	zone of inhibition at 10 µg/disc (Priestia megaterium [2]) [mm]	zone of inhibition at 10 µg/disc (Salmonella typhi [3]) [mm]	MIC (Serratia marcescens [4]) [µg/mL]	MIC (Pseudomonas aeruginosa [5]) [µg/mL]	zone of inhibition at 10 µg/disc (Escherichia coli [6]) [mm]	zone of inhibition at 10 µg/disc (Serratia marcescens [7]) [mm]	diameter of the inhibition zone (DIZ) (Citrobacter freundii [25]) [mm]	diameter of the inhibition zone (DIZ) (Escherichia coli [26]) [mm]	diameter of the inhibition zone (DIZ) (Aspergillus niger [27]) [mm]	diameter of the inhibition zone (DIZ) (Fusarium verticillioides [28]) [mm]	diameter of the inhibition zone (DIZ) (Serratia marcescens [29]) [mm]	diameter of the inhibition zone (DIZ) (Pseudomonas aeruginosa [30]) [mm]	diameter of the inhibition zone (DIZ) (Micrococcus luteus [31]) [mm]	diameter of the inhibition zone (DIZ) (Proteus vulgaris [32]) [mm]	diameter of the inhibition zone (DIZ) (Priestia megaterium [33]) [mm]	diameter of the inhibition zone (DIZ) (Aspergillus oryzae [34]) [mm]	diameter of the inhibition zone (DIZ) (Candida albicans [35]) [mm]	diameter of the inhibition zone (DIZ) (Salmonella typhi [36]) [mm]	diameter of the inhibition zone (DIZ) (Klebsiella pneumoniae [37]) [mm]	other results
O=C(/C=C/c1ccccc1)c1ccco1	11	11	5	10 (≈ 50.4 µM)	10 (≈ 50.4 µM)	5	5														zone of inhibition at 10 µg/disc (Klebsiella pneumoniae [8]): 7 mm; zone of inhibition at 10 µg/disc (Micrococcus luteus [9]): 11 mm; MIC (Klebsiella pneumoniae [10]): 10 µg/mL (≈ 50.4 µM); zone of inhibition at 10 µg/disc (Proteus vulgaris [11]): 8 mm; MIC (Escherichia coli [12]): 10 µg/mL (≈ 50.4 µM); MIC (Proteus vulgaris [13]): 10 µg/mL (≈ 50.4 µM); zone of inhibition at 10 µg/disc (Pseudomonas aeruginosa [14]): 5 mm; MIC (Citrobacter freundii [15]): 10 µg/mL (≈ 50.4 µM); zone of inhibition at 20 µg/disc (Fusarium verticillioides [16]): 7 mm; zone of inhibition at 20 µg/disc (Candida albicans [17]): 7 mm; MIC (Micrococcus luteus [18]): 10 µg/mL (≈ 50.4 µM); zone of inhibition at 10 µg/disc (Citrobacter freundii [19]): 13 mm; zone of inhibition at 10 µg/disc (Aspergillus oryzae [20]): 8 mm; MIC (Salmonella typhi [21]): 10 µg/mL (≈ 50.4 µM); MIC (Priestia megaterium [22]): 10 µg/mL (≈ 50.4 µM)
O=C(/C=C/c1ccco1)c1ccccc1	8	9	5	10 (≈ 50.4 µM)	10 (≈ 50.4 µM)	5	7														zone of inhibition at 10 µg/disc (Klebsiella pneumoniae [8]): 6 mm; zone of inhibition at 10 µg/disc (Micrococcus luteus [9]): 9 mm; MIC (Klebsiella pneumoniae [10]): 10 µg/mL (≈ 50.4 µM); zone of inhibition at 10 µg/disc (Proteus vulgaris [11]): 9 mm; MIC (Escherichia coli [12]): 10 µg/mL (≈ 50.4 µM); zone of inhibition at 10 µg/disc (Candida albicans [23]): 9 mm; MIC (Proteus vulgaris [13]): 20 µg/mL (≈ 101 µM); zone of inhibition at 10 µg/disc (Pseudomonas aeruginosa [14]): 5 mm; MIC (Citrobacter freundii [15]): 10 µg/mL (≈ 50.4 µM); zone of inhibition at 20 µg/disc (Fusarium verticillioides [16]): 7 mm; MIC (Micrococcus luteus [18]): 10 µg/mL (≈ 50.4 µM); zone of inhibition at 10 µg/disc (Citrobacter freundii [19]): 7 mm; zone of inhibition at 30 µg/disc (Aspergillus oryzae [24]): 8 mm; MIC (Salmonella typhi [21]): 10 µg/mL (≈ 50.4 µM); MIC (Priestia megaterium [22]): 20 µg/mL (≈ 101 µM)
O=C(c1ccco1)C1C(C(=O)c2ccco2)C(c2ccccc2)C1c1ccccc1 (stereo not drawn)								5	5	5	6	5	5	7	7	5	5	5	5	5	
O=C(c1ccc[nH]1)C1C(C(=O)c2ccc[nH]2)C(c2ccccc2)C1c1ccccc1 (stereo not drawn)								5	5	5	5	5	6	5	5	5	5	5	5	5	
O=C(c1cccs1)C1C(C(=O)c2cccs2)C(c2ccccc2)C1c1ccccc1 (stereo not drawn)								5	5	5	5	5	5	7	5	9	5	5	6	5	

Source: ChEMBL document CHEMBL3046652, “Photodimerization of heteroaryl chalcones: comparative antimicrobial activities of chalcones and their photoproducts” (2012)
